{
  "source": "ChEMBL document CHEMBL1140465",
  "about": "“The design and preliminary structure-activity relationship studies of benzotriazines as potent inhibitors of Abl and Abl-T315I enzymes” (Bioorg Med Chem Lett, 2007)",
  "key": {"Homo sapiens [1]": {"species_on_record": "Homo sapiens", "experiment": "Apoptosis inducing effect in Bcr-Abl-T315I cells assessed as caspase 3 activation after 4 hrs", "format": "functional, cell-based"}, "Bcr-Abl [2]": {"tested_on": "Bcr-Abl", "experiment": "Apoptosis inducing activity in Bcr-Abl cells assessed as caspase 3 activation after 4 hrs", "format": "functional, cell-based", "conditions": "Homo sapiens"}, "BaF3 [3]": {"tested_on": "BaF3", "experiment": "Blockade of full length human Bcr-Abl expressed in mouse Ba/F3 cells assessed as inhibition of STAT5 phosphorylation", "format": "cell-based"}, "Homo sapiens [4]": {"species_on_record": "Homo sapiens", "experiment": "Apoptosis inducing activity in Bcr-Abl-T315I cells assessed as induction of DNA fragmentation at 2 uM after 24 hrs", "format": "functional, cell-based"}, "BaF3 [5]": {"tested_on": "BaF3", "experiment": "Blockade of Bcr-Abl-T315I mutant expressed in mouse Ba/F3 cells assessed as inhibition of […] phosphorylation", "format": "cell-based", "conditions": "Homo sapiens"}, "BaF3 [6]": {"tested_on": "BaF3", "experiment": "Apoptosis inducing activity in Ba/F3 cells assessed as caspase 3 activation after 4 hrs", "format": "functional, cell-based", "conditions": "Mus musculus"}, "BaF3 [7]": {"tested_on": "BaF3", "experiment": "Apoptosis inducing activity in Ba/F3 cells assessed as induction of DNA fragmentation at 2 uM after 24 hrs", "format": "functional, cell-based", "conditions": "Mus musculus"}, "Bcr-Abl [8]": {"tested_on": "Bcr-Abl", "experiment": "Apoptosis inducing activity in Bcr-Abl cells assessed as induction of DNA fragmentation at 2 uM after 24 hrs", "format": "functional, cell-based", "conditions": "Homo sapiens"}, "[9]": {"target": "Proto-oncogene tyrosine-protein kinase Src (Homo sapiens, UniProt P12931)", "sequence (P12931 2-536 limits assumed)": "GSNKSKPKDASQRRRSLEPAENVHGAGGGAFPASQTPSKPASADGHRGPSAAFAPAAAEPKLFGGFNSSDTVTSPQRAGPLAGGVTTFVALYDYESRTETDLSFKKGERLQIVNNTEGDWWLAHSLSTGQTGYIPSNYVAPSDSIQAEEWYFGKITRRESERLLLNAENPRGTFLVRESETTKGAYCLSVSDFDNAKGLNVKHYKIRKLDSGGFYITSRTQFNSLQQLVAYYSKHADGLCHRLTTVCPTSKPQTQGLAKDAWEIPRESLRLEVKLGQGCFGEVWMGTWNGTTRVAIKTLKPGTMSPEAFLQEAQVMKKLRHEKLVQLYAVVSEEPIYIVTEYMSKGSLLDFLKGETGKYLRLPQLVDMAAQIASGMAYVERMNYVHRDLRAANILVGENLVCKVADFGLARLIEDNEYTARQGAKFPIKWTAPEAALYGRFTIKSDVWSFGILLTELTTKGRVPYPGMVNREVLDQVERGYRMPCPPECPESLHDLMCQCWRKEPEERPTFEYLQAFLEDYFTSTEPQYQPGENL", "experiment": "Inhibition of Src"}, "[10]": {"target": "Tyrosine-protein kinase ABL1 (Homo sapiens, UniProt P00519)"}, "[11]": {"target": "Tyrosine-protein kinase ABL1 (Homo sapiens, UniProt P00519, T315I)", "experiment": "Inhibition of Abl-T315I mutant"}},
  "note": "The source made the active and inactive calls. The rule behind the calls is not given here.",
  "data": [
    {"smiles": "Cc1cc(-c2cc(O)ccc2Cl)cc2nnc(Nc3ccc(S(=O)(=O)NCCN4CCCC4)cc3)nc12", "values": [
      {"measurement": "Activity", "setting": "Homo sapiens [1]", "value": "Active"},
      {"measurement": "Activity", "setting": "Bcr-Abl [2]", "value": "Active"},
      {"measurement": "Activity", "setting": "BaF3 [3]", "value": "Active"},
      {"measurement": "Activity", "setting": "Homo sapiens [4]", "value": "Active"},
      {"measurement": "Activity", "setting": "BaF3 [5]", "value": "Active"},
      {"measurement": "Activity", "setting": "BaF3 [6]", "value": "inactive"},
      {"measurement": "Activity", "setting": "BaF3 [7]", "value": "inactive"},
      {"measurement": "Activity", "setting": "Bcr-Abl [8]", "value": "Active"}
    ]},
    {"smiles": "Cc1cc(-c2cc(O)ccc2Cl)cc2nnc(Nc3ccc(OCCN4CCCC4)cc3)nc12", "values": [
      {"measurement": "Ki", "setting": "[9]", "value": 1.3, "unit": "nM"}
    ]},
    {"smiles": "Cc1cccc(C)c1-c1cc(C)c2nc(Nc3ccc(OCCN4CCCC4)cc3)nnc2c1", "values": [
      {"measurement": "Ki", "setting": "[10]", "value": 11, "unit": "nM"},
      {"measurement": "Ki", "setting": "[11]", "value": 4240, "unit": "nM"}
    ]}
  ]
}
